Laboratory results: the NIST ThermoML archive (doi:10.1016/j.jct.2006.07.002)
± gives the expanded uncertainty stated by the source.

Experiments:
[1] = refractive index (Na D-line) (dimensionless); conditions: 293.15 K; 101.33 kPa; Liquid; Standard Abbe refractometry
[2] = 293.15 K; 101.33 kPa; Liquid
[3] = Boiling temperature at pressure P; conditions: Liquid, Distillation

| refractive index [1] | mass density [2] [kg/m3] | Boiling temperature at pressure P ([3]; 101.33 kPa) [°C] | Boiling temperature at pressure P ([3]; 1.733 kPa) [°C] | Compound |
| --- | --- | --- | --- | --- |
| 1.3975 ± 0.0007 | 952.8 ± 0.58 | – | – | CCCC(=O)O [butanoic acid] |
| 1.42454 ± 0.0007 | 1087.67 ± 0.76 | 214.2 ± 0.2 | – | COC(=O)CCCC(=O)OC [dimethyl pentanedioate] |
| 1.42825 ± 0.0007 | 1061.72 ± 0.67 | – | 115 ± 1 | COC(=O)CCCCC(=O)OC [dimethyl 1,6-hexanedioate] |
| 1.41969 ± 0.00078 | 1119.13 ± 2.3 | 196.1 ± 0.2 | – | COC(=O)CCC(=O)OC [dimethyl 1,4-butanedioate] |
